{
  "source": "patent US20170189409A1",
  "about": "“MEDICAL USE” (Almirall, S.A., priority 2014, published 2017)",
  "key": {"[1]": {"tested_on": "anti-KLH antibody response", "test": "Primary T-dependent antibody response (TDAR) to KLH in mice", "format": "in vivo", "method": "This assay allows a global assessment of the effect of a drug candidate on antigen presentation, helper T lymphocyte function and B lymphocyte dependent antibody production.\nIn both cases, the administration of the test compound started on the day of sensitization (day +1, KLH 2 mg/mouse, intravenously). […] A possible reason for this discrepancy is that the lymphocyte count of the concurrent vehicle group of the latter study was abnormally lower than usual, which could mask a potential effect of the test compound on this parameter."}, "[2]": {"tested_on": "anti-KLH antibody response", "test": "Secondary TDAR assay to KLH in mice", "format": "in vivo", "method": "This assay included two immunizations with KLH separated 15 days apart (50 μg KLH/animal, intraperitoneally) and specific IgG anti-KLH levels were measured on day +11 after the second immunization. Administration of test compound (0.3 and 3 mg/kg) started on the day of second immunization (day +1) and then once daily for the next 9 days."}, "[3]": {"tested_on": "anti-Dsg3 and anti-dsDNA autoantibody production", "test": "MRL/lpr mouse spontaneous autoimmune disease model, autoantibody production", "format": "in vivo", "method": "The primary endpoint of this study was assessment of autoantibody production, including pemphigus-specific anti-Dsg3 antibodies.\nThe prednisolone dose was selected based on previous reports and corresponds to a high CS dose in humans.\nAs autoantibodies develop progressively and may follow a different course in each animal, anti-dsDNA antibody levels were measured on week 12 and used to uniformly distribute animals to dosing groups. At week 13, daily treatments were initiated and continued for 6 weeks. Antibodies to dsDNA and Dsg3 were measured at weeks 12, 15, 17 and 19. Skin lesions were inspected visually throughout the study. Effects on other parameters such as proteinuria, as well as general hematological, serological, and histological signs were evaluated at study completion."}, "[4]": {"tested_on": "autoantibody-mediated cutaneous lesions", "test": "Immunization-induced mouse model of epidermolysis bullosa acquista (EBA)", "format": "in vivo, B6.SJL-H2s mice", "conditions": "for body weight gain: 6 week treatment, LAS191954 3 mg/kg/day, methylprednisolone 20 mg/kg/day", "method": "Induction of experimental EBA was performed as described in […] et al., J Immunol. 2013; 191:2978-2988. Briefly, 6-10 week B6.SJL-[…] mice were immunized with an emulsion of a recombinant protein encompassing the vWFA2 binding domain of mouse type VII collagen (COL7) in adjuvant (Titermax). After immunization, mice were weekly evaluated for the presence and extend of clinical disease, measured as percentage of body surface affected by skin lesions (erythema, blisters, erosions and crusts). […] Treatments were carried out over a 6-week period, and mice were evaluated for the extend of clinical disease (primary endpoint) weekly. […] For better comparability between experiments, the affected body surface area at weeks 1-6 was related to that at inclusion (set at 1). Body weight was monitored weekly during treatment."}, "[5]": {"target": "PI3K p110α (Homo sapiens, UniProt P42336)", "sequence (P42336 whole entry)": "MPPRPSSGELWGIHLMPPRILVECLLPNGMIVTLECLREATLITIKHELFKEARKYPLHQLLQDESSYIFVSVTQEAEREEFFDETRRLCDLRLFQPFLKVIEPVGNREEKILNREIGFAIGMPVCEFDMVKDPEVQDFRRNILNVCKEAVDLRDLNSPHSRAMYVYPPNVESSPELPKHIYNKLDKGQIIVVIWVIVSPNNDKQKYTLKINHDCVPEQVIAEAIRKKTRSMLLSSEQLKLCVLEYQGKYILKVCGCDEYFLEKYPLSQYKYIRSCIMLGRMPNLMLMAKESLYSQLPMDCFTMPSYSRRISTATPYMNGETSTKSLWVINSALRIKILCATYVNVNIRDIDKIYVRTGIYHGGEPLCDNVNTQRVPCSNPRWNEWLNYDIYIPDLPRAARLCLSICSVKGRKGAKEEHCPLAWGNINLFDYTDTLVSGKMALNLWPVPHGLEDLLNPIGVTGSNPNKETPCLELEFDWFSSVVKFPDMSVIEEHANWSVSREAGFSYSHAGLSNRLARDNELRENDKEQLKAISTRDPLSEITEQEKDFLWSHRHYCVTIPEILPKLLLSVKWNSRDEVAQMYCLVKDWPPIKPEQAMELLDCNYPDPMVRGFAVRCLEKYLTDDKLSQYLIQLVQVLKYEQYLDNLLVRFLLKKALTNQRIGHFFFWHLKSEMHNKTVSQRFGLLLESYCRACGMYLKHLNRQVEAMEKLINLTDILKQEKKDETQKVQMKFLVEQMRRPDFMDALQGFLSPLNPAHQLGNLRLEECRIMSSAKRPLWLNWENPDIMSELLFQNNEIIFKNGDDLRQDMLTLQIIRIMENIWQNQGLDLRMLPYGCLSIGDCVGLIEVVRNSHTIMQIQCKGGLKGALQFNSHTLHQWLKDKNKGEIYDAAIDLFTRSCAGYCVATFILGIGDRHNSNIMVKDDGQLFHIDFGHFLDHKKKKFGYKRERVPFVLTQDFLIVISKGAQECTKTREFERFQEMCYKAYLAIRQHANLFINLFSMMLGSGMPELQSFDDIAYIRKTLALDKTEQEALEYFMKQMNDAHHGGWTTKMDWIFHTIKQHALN", "sequence (P27986 whole entry partner)": "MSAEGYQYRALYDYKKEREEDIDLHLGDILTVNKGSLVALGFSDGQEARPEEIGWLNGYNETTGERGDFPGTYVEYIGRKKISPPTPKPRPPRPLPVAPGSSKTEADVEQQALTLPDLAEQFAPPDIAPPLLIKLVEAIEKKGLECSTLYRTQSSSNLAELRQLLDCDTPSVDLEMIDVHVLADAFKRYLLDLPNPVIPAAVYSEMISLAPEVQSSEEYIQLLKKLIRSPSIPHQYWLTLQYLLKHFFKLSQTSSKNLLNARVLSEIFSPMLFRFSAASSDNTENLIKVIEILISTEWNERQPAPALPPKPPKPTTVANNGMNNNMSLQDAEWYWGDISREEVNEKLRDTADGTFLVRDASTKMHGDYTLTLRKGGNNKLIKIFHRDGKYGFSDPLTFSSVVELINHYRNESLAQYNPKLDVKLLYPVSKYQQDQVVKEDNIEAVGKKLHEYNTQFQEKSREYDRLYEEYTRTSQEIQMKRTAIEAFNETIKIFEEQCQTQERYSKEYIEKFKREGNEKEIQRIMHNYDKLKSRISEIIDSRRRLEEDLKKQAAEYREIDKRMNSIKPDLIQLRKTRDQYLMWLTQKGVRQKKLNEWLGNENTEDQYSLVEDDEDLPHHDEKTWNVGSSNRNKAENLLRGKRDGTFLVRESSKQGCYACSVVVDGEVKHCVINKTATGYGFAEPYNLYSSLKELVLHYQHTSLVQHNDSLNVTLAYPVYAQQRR", "conditions": "compound pre-incubation time of 30 min"}, "[6]": {"target": "PI3K p110β (Homo sapiens, UniProt P42338)", "sequence (P42338 whole entry)": "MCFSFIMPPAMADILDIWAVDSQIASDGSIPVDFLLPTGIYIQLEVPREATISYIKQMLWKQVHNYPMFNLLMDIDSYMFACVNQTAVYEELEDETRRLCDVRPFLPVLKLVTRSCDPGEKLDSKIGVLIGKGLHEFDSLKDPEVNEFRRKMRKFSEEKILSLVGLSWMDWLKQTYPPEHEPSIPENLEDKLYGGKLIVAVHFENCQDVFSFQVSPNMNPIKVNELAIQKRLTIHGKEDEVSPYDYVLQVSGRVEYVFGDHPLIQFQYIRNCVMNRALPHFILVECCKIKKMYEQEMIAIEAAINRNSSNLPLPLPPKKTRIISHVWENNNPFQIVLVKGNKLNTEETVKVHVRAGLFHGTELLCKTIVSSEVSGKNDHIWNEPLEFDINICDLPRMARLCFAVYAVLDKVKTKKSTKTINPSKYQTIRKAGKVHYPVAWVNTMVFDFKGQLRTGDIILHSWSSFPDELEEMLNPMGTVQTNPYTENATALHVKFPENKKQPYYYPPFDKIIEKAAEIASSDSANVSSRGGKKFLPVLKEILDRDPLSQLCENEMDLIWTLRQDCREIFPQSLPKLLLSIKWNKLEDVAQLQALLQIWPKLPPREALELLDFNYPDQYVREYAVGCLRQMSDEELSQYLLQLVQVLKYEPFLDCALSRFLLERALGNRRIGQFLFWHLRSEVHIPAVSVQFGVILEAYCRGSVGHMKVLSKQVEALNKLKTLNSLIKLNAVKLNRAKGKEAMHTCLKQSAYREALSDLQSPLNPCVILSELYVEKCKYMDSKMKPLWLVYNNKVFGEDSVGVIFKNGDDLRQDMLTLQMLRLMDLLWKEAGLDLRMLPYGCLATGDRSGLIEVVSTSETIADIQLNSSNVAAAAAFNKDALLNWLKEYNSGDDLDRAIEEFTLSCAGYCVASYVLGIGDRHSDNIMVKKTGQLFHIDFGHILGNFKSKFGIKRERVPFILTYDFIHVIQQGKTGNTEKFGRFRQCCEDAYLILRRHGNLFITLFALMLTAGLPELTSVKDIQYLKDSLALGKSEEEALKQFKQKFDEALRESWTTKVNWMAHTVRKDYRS", "sequence (P27986 whole entry partner)": "as the sequence (P27986 whole entry partner) above", "conditions": "compound pre-incubation time of 30 min"}, "[7]": {"tested_on": "anti-Dsg3 antibody-induced skin damage", "test": "Neonatal passive transfer model", "conditions": "for mice with blisters: 8 mice treated"}, "[8]": {"conditions": "week 19 versus week 12 (FIG. 3)"}},
  "data": [
    {"compound": "C[C@H](Nc1ncnc(N)c1C#N)c1nn2ccc(C#N)c2c(=O)n1-c1ccccc1", "note": "[LAS191954, (S)-2-(1-(6-amino-5-cyanopyrimidin-4-ylamino)ethyl)-4-oxo-3-phenyl-3,4-dihydropyrrolo[1,2-f][1,2,4]triazine-5-carbonitrile]", "values": [
      {"measurement": "ID50, primary IgM antibody responses to KLH", "setting": "[1]; day +5 PI, 4 days of daily treatment, 0.03-10 mg/kg", "value": 0.12, "unit": "mg/kg"},
      {"measurement": "ID50, primary IgG antibody responses to KLH", "setting": "[1]; day +15 PI, 14-day dosing, 0.03-1 mg/kg", "value": 0.17, "unit": "mg/kg"},
      {"measurement": "lymphocyte count", "setting": "[1]; primary IgG study", "value": "no apparent effect"},
      {"measurement": "general health status of the animals", "setting": "[1]; primary IgM and IgG studies", "value": "without apparent effects"},
      {"measurement": "WBC counts", "setting": "[1]; primary IgM study, mainly reduced peripheral blood lymphocytes", "value": "lower WBC counts"},
      {"measurement": "ID50, secondary IgG antibody responses to KLH", "setting": "[2]; day +11 after second immunization, 0.3 and 3 mg/kg once daily", "value": "<0.3", "unit": "mg/kg"},
      {"measurement": "lymphocyte counts", "setting": "[2]; secondary TDAR, 0.3 and 3 mg/kg", "value": "reduced lymphocyte counts"},
      {"measurement": "ID50, anti-Dsg3 and anti-dsDNA autoantibody production", "setting": "[3]; Mrl/Lpr model, repeated administration", "value": "<3", "unit": "mg/kg"},
      {"measurement": "reduction of anti-dsDNA antibody titers", "setting": "[3]; [8]", "value": 10, "unit": "%"},
      {"measurement": "body weight gain", "setting": "[4]", "value": "not altered"},
      {"measurement": "overall disease activity, AUC of clinical score", "setting": "[4]; LAS191954 orally 3 mg/kg/day, 6 weeks, versus vehicle", "value": "significant reduction in the accumulative clinical score"},
      {"measurement": "IC50", "setting": "[5]", "value": 8.22, "unit": "µM"},
      {"measurement": "IC50", "setting": "[6]", "value": 94.2, "unit": "nM"},
      {"measurement": "% with blisters", "setting": "[7]; PV IgG + LAS191954 1 mg/kg", "value": 75, "unit": "%"},
      {"measurement": "mice with blisters", "setting": "[7]; PV IgG + LAS191954 1 mg/kg", "value": 6},
      {"measurement": "% with blisters", "setting": "[7]; PV IgG + LAS191954 10 mg/kg", "value": 100, "unit": "%"},
      {"measurement": "mice with blisters", "setting": "[7]; PV IgG + LAS191954 10 mg/kg", "value": 8},
      {"measurement": "effect on anti-Dsg3 antibody-induced skin damage", "setting": "[7]; mouse, in vivo", "value": "no direct effect"}
    ]},
    {"compound": "C[C@]12C=CC(=O)C=C1CC[C@@H]1[C@@H]2[C@@H](O)C[C@@]2(C)[C@H]1CC[C@]2(O)C(=O)CO", "note": "[Prednisolone, prednisolone, reference compound]", "values": [
      {"measurement": "change of anti-dsDNA antibody levels at the end of treatment", "setting": "[3]; [8]", "value": "doubled"}
    ]},
    {"compound": "C[C@H]1C[C@@H]2[C@H]([C@@H](O)C[C@@]3(C)[C@H]2CC[C@]3(O)C(=O)CO)[C@@]2(C)C=CC(=O)C=C12", "note": "[Methylprednisolone, reference compound]", "values": [
      {"measurement": "body weight gain", "setting": "[4]", "value": "diminished the body weight gain"}
    ]}
  ]
}
